Laboratory results: patent publication US5770617A, “Terbenzimidazoles useful as antifungal agents” (Rutgers, The State University of New Jersey, priority 1997, dated 1998)

How the values were obtained:
[1] = target: T1, Aspergillus topoisomerase I (Aspergillus nidulans, UniProt Q5BGS7); assay: Covalent transfer of 32P radioactivity from DNA to topoisomerase I (phosphate-transfer); type: biochemical; details: for phosphate transfer to 105 kDa Aspergillus topoisomerase I: Ho33342 1 mM
T1 construct: about 105 kDa by phosphate transfer
T1 sequence (Q5BGS7 1-871): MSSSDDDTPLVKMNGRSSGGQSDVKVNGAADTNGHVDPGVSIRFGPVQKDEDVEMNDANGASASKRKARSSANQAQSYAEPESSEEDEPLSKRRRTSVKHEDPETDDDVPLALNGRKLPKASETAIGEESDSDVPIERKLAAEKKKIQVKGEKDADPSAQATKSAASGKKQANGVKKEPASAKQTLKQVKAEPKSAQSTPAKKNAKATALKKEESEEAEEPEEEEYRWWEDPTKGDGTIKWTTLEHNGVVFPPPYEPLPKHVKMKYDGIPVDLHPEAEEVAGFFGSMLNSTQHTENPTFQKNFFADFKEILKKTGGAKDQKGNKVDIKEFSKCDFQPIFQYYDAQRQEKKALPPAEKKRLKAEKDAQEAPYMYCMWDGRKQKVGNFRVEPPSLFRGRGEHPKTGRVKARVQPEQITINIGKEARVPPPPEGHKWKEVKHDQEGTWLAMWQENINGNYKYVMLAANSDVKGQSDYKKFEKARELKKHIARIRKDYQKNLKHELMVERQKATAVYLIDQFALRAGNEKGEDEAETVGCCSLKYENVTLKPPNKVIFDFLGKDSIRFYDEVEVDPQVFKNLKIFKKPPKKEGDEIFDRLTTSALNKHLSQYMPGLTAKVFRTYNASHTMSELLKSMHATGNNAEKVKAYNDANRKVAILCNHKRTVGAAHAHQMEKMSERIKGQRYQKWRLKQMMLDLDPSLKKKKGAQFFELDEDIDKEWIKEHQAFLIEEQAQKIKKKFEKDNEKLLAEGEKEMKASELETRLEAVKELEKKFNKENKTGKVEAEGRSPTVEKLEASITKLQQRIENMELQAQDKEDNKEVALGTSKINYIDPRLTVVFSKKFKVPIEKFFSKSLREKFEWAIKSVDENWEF
Protocol: This phosphate-transfer method was a modification of the procedure described previously by T. C. Rowe et al., J. Biol. Chem., 259, 9177 (1984). Briefly, a 100-μl reaction mixture containing 10 mM Tris-HCl, pH 7.5, 1 mM MgCl2, 0.5 mM dithiothreitol, 30 μg/ml of bovine serum albumin, drug (camptothecin or Hoechst 33342) at an indicated concentration, 50 ng of YEpG DNA labeled with ^32 PdATP by the random primer method (Random Primed Labeling Kit, Boehringer Mannheim), and 300 units of human or Aspergillus topoisomerase I, was incubated at 37° C. for 10 minutes. The reactions were terminated by adding NaOH to 0.18M and EDTA to 2.5 mM. After neutralizing the reaction with a precalibrated amount of Tris-HCl, 9 μl of 0.1M CaCl2 and 7.5 μl of 20% SDS were added, and the volume was adjusted to 300 μl with H2 O.
Five units of Bal31 nuclease (New England, BioLabs) were added, and the sample was digested for 1 hour at 25° C. The reaction was terminated by extraction with 1 volume of phenol. The phenol phase was saved and back-extracted once with an equal volume of 10 mM Tris-HCl, pH 8.0, 1 mM EDTA. The protein-oligonucleotide complexes were then precipitated from the phenol phase by adding 10 volumes of ice-cold acetone and placing on ice for 10 minutes. The pellet was dissolved in SDS sample buffer and analyzed by SDS-PAGE. Gel drying and autoradiography were done as described (Hsiang et al., J. Biol. Chem., 260, 14873 (1985)).

[2] = target: T2, calf thymus topoisomerase I (Bos taurus, UniProt F1MN93); assay: Topoisomerase I-mediated DNA cleavage assay (calf thymus enzyme); type: biochemical; details: for Topo I-mediated DNA cleavage (REC, Relative Effective Concentration): concentration relative to Hoechst 33342 (arbitrarily 1) producing the same cleavage on plasmid DNA, calf thymus topoisomerase I
T2 construct: DNA topoisomerase I was purified from calf thymus gland as reported previously; from tissue; host or cells: calf thymus gland
T2 sequence (F1MN93 1-767): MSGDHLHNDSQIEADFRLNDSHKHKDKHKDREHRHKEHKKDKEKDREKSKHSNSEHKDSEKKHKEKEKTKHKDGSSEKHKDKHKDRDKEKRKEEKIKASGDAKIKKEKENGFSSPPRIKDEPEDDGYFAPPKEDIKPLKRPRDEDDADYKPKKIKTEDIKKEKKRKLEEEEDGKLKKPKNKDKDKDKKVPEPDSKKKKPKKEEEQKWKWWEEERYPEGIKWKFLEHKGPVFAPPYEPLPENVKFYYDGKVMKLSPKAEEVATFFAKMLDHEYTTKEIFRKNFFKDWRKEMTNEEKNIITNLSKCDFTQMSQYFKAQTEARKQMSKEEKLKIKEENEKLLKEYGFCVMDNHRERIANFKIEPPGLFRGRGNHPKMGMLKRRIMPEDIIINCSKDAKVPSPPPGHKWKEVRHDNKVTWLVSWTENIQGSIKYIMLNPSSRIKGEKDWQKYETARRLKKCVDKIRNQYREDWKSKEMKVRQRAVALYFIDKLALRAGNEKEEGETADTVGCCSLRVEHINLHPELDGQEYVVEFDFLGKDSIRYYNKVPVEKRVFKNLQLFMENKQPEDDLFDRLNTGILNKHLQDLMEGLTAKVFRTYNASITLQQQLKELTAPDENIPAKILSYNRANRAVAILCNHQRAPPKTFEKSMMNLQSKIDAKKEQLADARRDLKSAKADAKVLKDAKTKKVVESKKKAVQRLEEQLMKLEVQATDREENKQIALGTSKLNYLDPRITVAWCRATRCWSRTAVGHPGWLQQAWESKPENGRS
From the text: A. Topoisomerase I-Mediated DNA Cleavage Assays
DNA topoisomerase I was purified from calf thymus gland as reported previously by B. D. Halligan et al., J. Biol. Chem., 260, 2475 (1985).
Plasmid YEpG was also purified by the alkali lysis method followed by phenol deproteination and CsCl/ethidium isopycnic centrifugation as described by T. Maniatis et al., Molecular Cloning, A Laboratory Manual, Cold Spring Harbor Labs, N.Y. (1982) at pages 149-185. The end-labeling of the plasmid was accomplished as previously described by L. F. Liu et al., J. Biol. Chem., 258, 15365 (1983). The cleavage assays were performed as previously reported by A. Y. Chen et al., Cancer Res., 53, 1332 (1993). Human topoisomerase I was isolated as a recombinant fusion protein using a T7 expression system.

| SMILES | phosphate transfer to 105 kDa Aspergillus topoisomerase I [1] | phosphate transfer at higher concentrations ([1]; higher concentrations of Ho33342) | potency as topoisomerase I inhibitor compared with Hoechst 33342, in words [2] | Topo I-mediated DNA cleavage (REC, Relative Effective Concentration) [2] |
| --- | --- | --- | --- | --- |
| CCOc1ccc(-c2nc3cc(-c4nc5cc(N6CCN(C)CC6)ccc5[nH]4)ccc3[nH]2)cc1 [Hoechst 33342, 2'-(4-ethoxyphenyl)-5-(4-methyl-1-piperazinyl)-2,5'-bi-1H-benzimidazole] | stimulated the phosphate transfer | progressively inhibited |  |  |
| CC[C@@]1(O)C(=O)OCc2c1cc1n(c2=O)Cc2cc3ccccc3nc2-1 [camptothecin] | stimulated the phosphate transfer |  |  |  |
| c1ccc(-c2ccc3[nH]c(-c4ccc5[nH]c(-c6ccc7[nH]cnc7c6)nc5c4)nc3c2)cc1 [Compound 13, 5-Phenyl-2-[2'(benzimidazol-5"-yl)benzimidazol-5'-yl]benzimidazole] |  |  | approximately one-half as potent | 2 |
| N#Cc1ccc2[nH]c(-c3ccc4[nH]c(-c5ccc6[nH]cnc6c5)nc4c3)nc2c1 [Compound 11, 5-Cyano-2-[2'-(benzimidazol-5"-yl)benzimidazol-5'-yl]benzimidazole] |  |  |  | 1 |
